Patent US4880939A, “2,5,6,7-tetranor-18,18,19,19-tetradehydro-4,8-inter-m-phenylene PGI2 derivatives” (Toray Industries, priority 1986, dated 1989)
≈ marks a conversion by molar mass, not a printed value. Like-named read-outs stand apart in the source and are kept apart here.

Tests used:
[1] = system: lesions appearing on the stomach corpus; experiment: Gastric cytoprotection activity (method of A. Robert; 0.2N NaOH-induced stomach lesions); format: in vivo; details: dose reducing ulcer index to 50% of control, 30 minutes before 0.2N NaOH; for ED50: po; for ED50 (gastric cytoprotection activity): oral
Method: Gastric cytoprotection activity of the compounds of the present invention was investigated according to the method described by A. Robert in Gastroenterology, 77(3), 443 (1979).
A compound to be tested is orally administered to a group of animals and, 30 minutes later, 0.2N NaOH is orally applied to the animals. One hour later, the animals are sacrificed under anesthesia by chloroform and their stomachs are removed and fixed in 5% formalin solution. The stomach is then incised along the greater curvature. Lengths of lesions appearing on the stomach corpus are measured and summed. The total length is served as an ulcer index. A dose amount of a compound to be tested, by which the ulcer index is reduced to 50% of the index of a control group (100%), is designated as ED50.

gastric acid secretion [2] = experiment: Gastric acid secretion-inhibiting activity, pylorus ligation method (Shay); format: in vivo; details: injected into duodenum, pylorus ligated rats, five hours, five animals; for ED50: Rattus norvegicus, 5 h; for ED50, Acidity (gastric acid secretion-inhibiting activity) / ED50, Gastric juice volume (gastric acid secretion-inhibiting activity): 300 min
Method: Gastric acid secretion-inhibiting activity of the compounds of the present invention was investigated according to the pylorus ligation method described by Shay in Gastroenterology, 5, 43 (1945).
Under anesthesia by ether, the abdomen of a group of rats is incised at its median and the pylorus is ligated with a silk thread. Simultaneously, a compound to be tested is injected into the duodenum of the same rat. The abdomen is then closed. Five hours later, the abdomen is again incised and the esophagus is ligated. The whole stomach is then removed. The stomach is cut along the greater curvature and the contents of the stomach are transferred to a graduated centrifugal tube. After centrifugation at 3,000 rpm for 10 minutes, the volume of the gastric juice is measured. A portion of the supernatant is taken and titrated to pH 7 with 0.1N NaOH in a pH stat, Radio Meter Inc. An average dose amount of a compound to be tested in a group of five animals, by which either the volume of gastric juice (in ml) or the acidity (in mEq/ml) is reduced to 50% of the corresponding value of a control group, is designated as ED50.

gastric acid secretion [3] = experiment: Gastric acid secretion-inhibiting activity, method of M. Ghosh and H. Schild (perfused stomach, pentagastrin stimulation); format: in vivo, male SD rats; details: ratio of index (area of pH time course) to that of PGE2; femoral vein injection; pentagastrin 0.05 μg/kg per minute
Excerpt: The gastric acid secretion-inhibiting activity of the compounds of the present invention was also investigated according to the method described by M. Ghosh and H. Schild, Br. J. Pharmacol., 13, 54 (1958).
A group of male SD rats is incised in the abdomen under anesthesia by urethane. The lumen of the stomach is perfused with saline through a double tube cannula which has been inserted into the stomach through a lumen formed in the cardia. The pH of draining gastric acid is monitored by a pH meter. The secretion of gatric acid is stimulated by continuous infusion of pentagastrin at a rate of 0.05 μg/kg per minute. When the pH of the gastric acid becomes stable at about 4.0, a compound to be tested is injected through the femoral vein. An index for the gastric acid secretion-inhibiting activity of a compound to be tested is calculated from the area surrounded by a curve drawn by the time course of the pH of the gastric acid, from the time point when an initial increase of the pH is observed due to the gastric acid secretion-inhibition by the compound injected to the time point when the pH comes back to the baseline. The index thus obtained is compared to that of PGE2 and the ratio of the index to that of PGE2 is calculated.

[4] = system: blood pressure in the carotid; experiment: Hypotensive activity; format: in vivo, Wistar male rats; details: dose reducing blood pressure by 25 mmHg, injected via femoral artery, chloralose anesthesia; for ED (25 mmHg): Rattus norvegicus, read-out: ED25 (hypotensive activity)
Method: A catheter is inserted into and held in the carotid of a group of Wistar male rats under anesthesia by chloralose. Another end of the catheter is connected to a polygraph with a pressure transducer to measure the blood pressure in the carotid. A compound to be tested is injected via a catheter connected to the femoral artery. A dose amount of a compound to be tested, by which the blood pressure is reduced by 25 mmHg in the dose-response curve of the hypotensive compound, is designated as ED25.

platelet aggregation = experiment: Platelet aggregation-inhibiting activity (ADP-induced, platelet-rich plasma); format: cell-based, person; details: PRP, ADP 10 μM, compound added one minute before ADP; for IC50: Platelet
Method: The blood taken from the cubital median vein of a person is centrifuged at 800 rpm for 10 minutes and the supernatant is used as platelet-rich plasma (PRP). The PRP is distributed into small test tubes, and adenosine diphosphate (ADP) is added at a final concentration of 10 μM thereinto to induce platelet aggregation. The size of the aggregation is determined in a platelet aggregation measuring apparatus (RiKa-Denki, Tokyo, Japan) by measuring the change in turbidity of a sample in the small test tube. A compound to be tested is added to the sample one minute before the addition of ADP. The concentration of the compound to be tested, by which the platelet aggregation is reduced to 50% of that observed in a control group, is designated as IC50.

[5] = background; cited from earlier work
[6] = system: platelet aggregation, gastric acid secretion, peripheral blood vessel; details: background; cited from earlier work
[7] = unstable exo-enol structure; converted into 6-oxo PGF1α; cited from earlier work
[8] = background; cited from earlier work; remark: listed apart in the source
[9] = acidity reduced to 50% of control, read-out: ED50, Acidity (gastric acid secretion-inhibiting activity)
[10] = gastric juice volume reduced to 50% of control, read-out: ED50, Gastric juice volume (gastric acid secretion-inhibiting activity)
[11] = acidity reduced to 50% of control
[12] = gastric juice volume reduced to 50% of control

| IC50 (platelet aggregation) | Compound | ED50 [1] | ED50 (gastric acid secretion [2]; [9]) | ED50 (gastric acid secretion [2]; [10]) | Relative activity (PGE2 = 1), gastric acid secretion-inhibiting activity (gastric acid secretion [3]) | ED (25 mmHg) [4] | other results |
| --- | --- | --- | --- | --- | --- | --- | --- |
| – | CC#CCC(C)(C)C(O)C=CC1C(O)CC2Oc3c(CCCO)cccc3C21 (stereo not shown) [Compound 69, 3-Decarboxy-3-hydroxymethyl-16,16-dimethyl-2,5,6,7-tetranor-18,18,19,19-tetradehydro-4,8-inter-m-phenylene PGI2] | 0.82 µg/kg | 270 µg/kg | > 3000 µg/kg | 2.7 | > 100 µg/kg | – |
| – | CC#CCC(C)C(O)C=CC1C(O)CC2Oc3c(CCC(=O)O)cccc3C21 [Compound 39, 16(S)-methyl-2,5,6,7-tetranor-18,18,19,19-tetradehydro-4,8-inter-m-phenylene PGI2] | – | – | – | – | – | ED50 (gastric cytoprotection activity) [1]: 0.38 µg/kg; ED50, Acidity (gastric acid secretion-inhibiting activity) (gastric acid secretion [2]; [11]): 9.5 µg/kg; ED50, Gastric juice volume (gastric acid secretion-inhibiting activity) (gastric acid secretion [2]; [12]): 25 µg/kg; IC50 (platelet aggregation-inhibiting activity) (platelet aggregation): 0.42 ng/mL (≈ 1.09 nM); ED25 (hypotensive activity) [4]: 0.07 µg/kg |
| 0.34 ng/mL (≈ 0.853 nM) | CCC#CCC(C)C(O)C=CC1C(O)CC2Oc3c(CCC(=O)O)cccc3C21 (stereo not shown) [Compound 42, 16-Methyl-20a-homo-2,5,6,7-tetranor-18,18,19,19-tetradehydro-4,8-inter-m-phenylene PGI2] | – | 23 µg/kg | 18 µg/kg | 26 | – | – |
| – | CC#CCC(C)C(O)C=CC1C(O)CC2Oc3c(CCC(=O)O)cccc3C21 [Compound 38, 16(R)-Methyl-2,5,6,7-tetranor-18,18,19,19-tetradehydro-4,8-inter-m-phenylene PGI2] | – | – | – | – | – | ED50 (gastric cytoprotection activity) [1]: 24.1 µg/kg; ED50, Acidity (gastric acid secretion-inhibiting activity) (gastric acid secretion [2]; [11]): 490 µg/kg; ED50, Gastric juice volume (gastric acid secretion-inhibiting activity) (gastric acid secretion [2]; [12]): > 1000 µg/kg; IC50 (platelet aggregation-inhibiting activity) (platelet aggregation): 6.5 ng/mL (≈ 16.9 nM); ED25 (hypotensive activity) [4]: 0.57 µg/kg |
| 0.96 ng/mL (≈ 2.33 nM) | CCCC#CCC(C)C(O)C=CC1C(O)CC2Oc3c(CCC(=O)O)cccc3C21 (stereo not shown) [Compound 46, 16-Methyl-20a,20b-dihomo-2,5,6,7-tetranor-18,18,19,19-tetradehydro-4,8-inter-m phenylene PGI2] | 2.33 µg/kg | 140 µg/kg | 120 µg/kg | – | 0.22 µg/kg | – |
| 7.3 ng/mL (≈ 18.3 nM) | CC#CCC(C)(C)C(O)C=CC1C(O)CC2Oc3c(CCC(=O)O)cccc3C21 (stereo not shown) [Compound 54, 16,16-Dimethyl-2,5,6,7-tetranor-18,18,19,19-tetradehydro-4,8-inter-m-phenylene PGI2] | 2.8 µg/kg | 230 µg/kg | > 300 µg/kg | 16 | 0.64 µg/kg | – |
| 3 ng/mL (≈ 6.81 nM) | CCCCC#CCC(C)(C)C(O)C=CC1C(O)CC2Oc3c(CCC(=O)O)cccc3C21 (stereo not shown) [Compound 60, 16,16-Dimethyl-20a,20b,20c-trihomo-2,5,6,7-tetranor-18,18,19,19-tetradehydro-4,8-inter-m-phenylene PGI2] | – | > 3000 µg/kg | > 3000 µg/kg | 0.5 | – | – |
| – | CCCCC[C@H](O)/C=C/[C@@H]1[C@@H](CC(=O)CCCCC(=O)O)[C@@H](O)C[C@H]1O [6-oxo PGF1α] | – | – | – | – | – | physiological activity [5]: substantially inactive physiologically |
| – | CCCCC[C@H](O)/C=C/[C@@H]1[C@H]2C/C(=C/CCCC(=O)O)O[C@H]2C[C@H]1O [PGI2, Prostaglandin I2] | – | – | – | – | – | gastric acid secretion-inhibiting activity [6]: potent; peripheral blood vessel-dilating activity [6]: potent; platelet aggregation-inhibiting activity [6]: potent; stability in neutral aqueous solutions [7]: extremely unstable; duration of physiological activities in vivo [8]: only short duration; stability in vivo [8]: unstable in vivo |
| 5.5 ng/mL (≈ 12.1 nM) | CCCCCC#CCC(C)(C)C(O)C=CC1C(O)CC2Oc3c(CCC(=O)O)cccc3C21 (stereo not shown) [Compound 64, 16,16-dimethyl-20a,20b,20c,20d-tetrahomo-2,5,6,7-tetranor-18,18,19,19-tetradehydro-4,8-inter-m-phenylene PGI2] | 27.7 µg/kg | > 10000 µg/kg | 5600 µg/kg | 0.25 | 15.5 µg/kg | – |
| 0.63 ng/mL (≈ 1.48 nM) | CCCCC#CCC(C)C(O)C=CC1C(O)CC2Oc3c(CCC(=O)O)cccc3C21 (stereo not shown) [Compound 50, 16-Methyl-20a,20b,20c-trihomo-2,5,6,7-tetranor-18,18,19,19-tetradehydro-4,8-inter-m-phenylene PGI2] | 3.74 µg/kg | 740 µg/kg | 510 µg/kg | – | – | – |
| 3.2 ng/mL (≈ 7.76 nM) | CCC#CCC(C)(C)C(O)C=CC1C(O)CC2Oc3c(CCC(=O)O)cccc3C21 (stereo not shown) [Compound 57, 16,16-Dimethyl-20a-homo-2,5,6,7-tetranor-18,18,19,19-tetradehydro-4,8-inter-m-phenylene PGI2] | 1.14 µg/kg | 87 µg/kg | 210 µg/kg | 5.3 | 0.14 µg/kg | – |
| – | CCCCC[C@H](O)/C=C/[C@H]1[C@H](O)CC(=O)[C@@H]1C/C=C\CCCC(=O)O [PGE2, reference compound] | – | – | – | 1 | – | – |
